Measured values published in patent US9987307B2, “Tolerogenic dendritic cells, methods of producing the same, and uses thereof” (SOTIO A.S., priority 2014, dated 2018).
Entries after “also recorded” stand apart in the source; their conditions may differ.

Columns and labels:
tDCs [1] = assay: ILT-3, PD-L1 and CD86 expression on restimulated tDCs in the presence of inhibitors (flow cytometry); format: cell-based, human; conditions: for ILT-3 and PD-L1 expression in tDCs in the presence of inhibitor / CD86 expression in tDCs in the presence of inhibitor: restimulation 24 h
Experimental: (§1) To induce maturation, DC were treated with vaccine grade monophosphoryl lipid A (MPLA) (2 μg/ml, Cayla-InvivoGen) on day 6 or on day 7. On day 7 or on day 8, DC were harvested, washed and functional assays were performed. Control DC (cDC) were cultured without tolerising factors. For restimulation assays, tolDC and cDC were extensively washed and recultured in complete RPMI 1640 medium (Gibco) in the absence of tolerising factors for 24-72 h, with or without lipopolysaccharide (LPS, 1 μg/ml, Sigma-Aldrich), poly I:C (25 μg/ml, Cayla-InvivoGen), CD40L (1000 ng/ml, Enzo) or a mixture of pro-inflammatory cytokines containing IL-1β (10 ng/ml), TNFα (10 ng/ml), IL-6 (10 ng/ml) and IFNγ (100 ng/ml) (all from R&D systems). Supernatant and cells were collected for further analysis. Signaling inhibitors were added 1 h before the start of experiments under the specified stimulation conditions. SB203580 (p38 MAPK inhibitor at 10 μM), SP600125 (JNK/SAPK inhibitor at 20 μM), PD98059 (ERK1/2 inhibitor at 20 μM), Bay 11-7082 (NF-κB inhibitor at 10 μM), Stattic (STAT3 inhibitor at 5 μM) and rapamycin (mTOR inhibitor at 100 nM) were obtained from Calbiochem and dissolved in DMSO.
Cells were stained with fluorochrome-conjugated mAbs for 30 min at 4° C. in PBS, washed and analysed on LSRFortessa cell analyzer (BD Biosciences). Appropriate isotype controls were included. Data were analyzed using FlowJo software (Tree Star). DCs were gated according to the FSC, SSC and CD11c+ parameters for analysis. Dead cells were excluded from the analysis based on DAPI staining. For intracellular cytokine staining, T cells were stimulated with phorbol-12-myristate-13-acetate (PMA) (50 ng/ml, Sigma-Aldrich) plus ionomycin (1 μg/ml, Sigma-Aldrich) for 4-16 hours in the presence of Brefeldin A (5 μg/ml, BioLegend) before cell analysing. After stimulation, cells were washed, incubated in Fixation/Permeabilization Buffer (eBiosciences) for 30 min at 4° C., then washed in Permeabilization Buffer (eBiosciences) and stained with appropriate mAb for 30 min at 4° C.
(§2) Immature DCs were obtained from buffy coats of healthy donors as previously described [Palova-Jelinkova L, Rozkova D, Pecharova B, Bartova J, Sediva A, Tlaskalova-Hogenova H, Spisek R, Tuckova L: Gliadin fragments induce phenotypic and functional maturation of human dendritic cells. J Immunol 2005; 175:7038-7045]. […] Medium and cytokines were replenished on day 3. On day 6, DCs were harvested and seeded in 96-well plates (Nunc) at 1×10^6 cells/ml. On day 7, immature DCs were activated with vacci grade MPLA (2 μg/ml, Cayla-InvivoGen) for 24 hrs. To induce tDCs, DCs were treated with Dex on day 3 (1 μM, Medochemie) and Dex and VitD2-paricalcitol (1.5 ng/ml, Zemplar, Abbott Laboratories) on day 6. Control DCs (cDCs) were cultured without tolerising factors. For restimulation assays, tDCs and cDCs were washed and recultured in complete RPMI medium (Gibco) containing 5% human AB serum (Invitrogen) in the absence of tolerising factors for 24 h, with or without LPS (1 μg/ml, Sigma-Aldrich), polyI:C (25 μg/ml, Cayla-InvivoGen), megaCD40L™ (1000 ng/ml, Enzo Life Sciences) or mixture of pro-inflammatory cytokines containing IL-1β, TNF-α, IL-6 (all 10 ng/ml) and IFN-γ (100 ng/ml) (all from R&D systems). Signaling inhibitors were added 1 h before the start of experiments under the specified stimulation conditions. SB203580 (p38 MAPK inhibitor at 10 μM), SP600125 (JNK/SAPK inhibitor at 20 μM), PD98059 (ERK1/2 inhibitor at 20 μM), Bay 11-7082 (NF-κB inhibitor at 10 μM), Stattic (STAT3 inhibitor at 5 μM) and rapamycin (mTOR inhibitor at 100 nM) were obtained from Calbiochem and dissolved in dimethyl sulfoxide. Supernatants and cells were collected for further analysis.
Cells (2×10^5/well) were stained with fluorochrome-conjugated mAbs for 30 min at 4° C. in PBS, washed and analysed on LSR Fortessa cell analyzer (BD Biosciences). Appropriate isotype controls were included. Data were analyzed using FlowJo software (Tree Star). […]

cDCs = assay: IL-10 and IL-12 production of restimulated cDCs in the presence of inhibitors (ELISA); format: cell-based, human; conditions: for IL-12 production in cDCs in the presence of inhibitor: after LPS and CC triggering
Experimental: as §1
(§3) Cell supernatants were harvested after 24 hours of DC stimulation and frozen at −80° C. until analysis. IL-10, IL-12p70, IL-6 and TNFα concentrations were determined in cell culture supernatants of activated DCs using Luminex assay (MILLIPLEX™ Human Cytokine/Chemokine Kit, Merck Millipore) and ELISA assay (DuoSet ELISA Kit, R&D systems) according to manufacturer's instructions.
Immature DCs were obtained from buffy coats of healthy donors as previously described [Palova-Jelinkova L, Rozkova D, Pecharova B, Bartova J, Sediva A, Tlaskalova-Hogenova H, Spisek R, Tuckova L: Gliadin fragments induce phenotypic and functional maturation of human dendritic cells. J Immunol 2005; 175:7038-7045]. […] Medium and cytokines were replenished on day 3. On day 6, DCs were harvested and seeded in 96-well plates (Nunc) at 1×10^6 cells/ml. On day 7, immature DCs were activated with vacci grade MPLA (2 μg/ml, Cayla-InvivoGen) for 24 hrs. To induce tDCs, DCs were treated with Dex on day 3 (1 μM, Medochemie) and Dex and VitD2-paricalcitol (1.5 ng/ml, Zemplar, Abbott Laboratories) on day 6. Control DCs (cDCs) were cultured without tolerising factors. […]
Cell supernatants were harvested after 24 h of DC stimulation and frozen at −80° C. until analysis. IL-10, IL-12p70, TNF-α and TGF-β concentrations were determined using Luminex assay (MILLIPLEX™ Human Cytokine/Chemokine Kit, Merck Millipore) and ELISA assay (DuoSet ELISA Kit, R&D systems) according to the manufacturer's instructions. […]

tDCs [2] = assay: IL-10 and IL-12 production of restimulated tDCs in the presence of inhibitors (ELISA); format: cell-based, human; conditions: restimulation with CC, LPS, polyI:C, CD40L, 24 h
Experimental: as §1, §3, §2
Cell supernatants were harvested after 24 h of DC stimulation and frozen at −80° C. until analysis. IL-10, IL-12p70, TNF-α and TGF-β concentrations were determined using Luminex assay (MILLIPLEX™ Human Cytokine/Chemokine Kit, Merck Millipore) and ELISA assay (DuoSet ELISA Kit, R&D systems) according to the manufacturer's instructions. Cell supernatants were acidified before measuring TGF-β levels according to the manufacturer's instructions.
lactate, glucose and lactate dehydrogenase measurements: Concentrations of lactate and glucose in DC culture supernatants were measured with Glycolysis Cell-based assay kit (Cayman Chemicals) and Glucose colorimetric assay kit (BioVision), respectively. […]

glycolysis = assay: Metabolic quantification: lactate in DC supernatants; format: cell-based, human; conditions: pretreatment before restimulation, 24 h
Experimental: lactate, glucose and lactate dehydrogenase measurements: Concentrations of lactate and glucose in DC culture supernatants were measured with Glycolysis Cell-based assay kit (Cayman Chemicals) and Glucose colorimetric assay kit (BioVision), respectively. When indicated, glycolysis was suppressed by treatment with 10 mM 2-deoxyglucose (Sigma) 1 h prior exposition of DCs cultured in Cell Gro into RPMI, LPS, CC, polyI:C or CD40L. LDH activity of the DCs extracts was measured with Lactate dehydrogenase activity assay kit (Sigma).

allogeneic T cells = assay: Allostimulatory assay (primary MLR, CFSE dilution); format: cell-based, human; conditions: compared to tDCs without inhibitor; day 6
Experimental: For primary MLR assays, allogeneic T cells (2×10^5) labelled with 5 μM carboxyfluorescein succinimidyl ester (CFSE, Invitrogen) were incubated with tolDC or cDC (2×10^4) in 96-well, round-bottom plates. T cell proliferation was determined by the sequential dilution of CFSE fluorescence of T cells, as detected by flow cytometry on day 6.
T cells were obtained from PBMC non-adherent fraction. tDCs or cDCs (2×104) were cultured with allogeneic T cells (2×105) in complete RPMI medium (Gibco) containing 5% human AB serum (Invitrogen). IL-2 (20 U/ml, PeproTech) was added on day 2, 5 and 7. For primary mixed lymphocyte reaction (MLR) assays, allogeneic T cells (2×105) labelled with 5 μM carboxyfluorescein succinimidyl ester (CFSE) (Invitrogen) were incubated with tDCs or cDCs (2×104). T cell proliferation was determined by the sequential dilution of CFSE fluorescence of T cells, as detected by flow cytometry on day 6. For detection of IFN-γ, IL-10 and IL-17A production by T cells, 2×10^4 tDCs or cDCs were cultured with 2×10^5 allogeneic T cells. Cytokine production was determined by intracellular staining by flow cytometry on day 6 (IFN-γ) and day 9 (IL-10). IL-17A production from cell culture supernatants was analyzed by ELISA on day 6.

| Structure (SMILES) | ILT-3 and PD-L1 expression in tDCs in the presence of inhibitor (tDCs [1]) | IL-12 production in cDCs in the presence of inhibitor (cDCs) | IL-10 production in tDCs in the presence of inhibitor (tDCs [2]) | IL-12 production in tDCs in the presence of inhibitor (tDCs [2]) | CD86 expression in tDCs in the presence of inhibitor (tDCs [1]) | lactate generation in Dex/VitD tDCs in the presence of inhibitor (glycolysis) | ability of inhibitor-pretreated tDCs to stimulate allogeneic T cell proliferation (allogeneic T cells) | IL-10 production in cDCs in the presence of inhibitor (cDCs; after LPS restimulation) | viability of DCs (DCs) | PD-L1 expression in the presence of inhibitor (tDCs [1]; after LPS stimulation) |
| --- | --- | --- | --- | --- | --- | --- | --- | --- | --- | --- |
| C[S+]([O-])c1ccc(-c2nc(-c3ccncc3)c(-c3ccc(F)cc3)[nH]2)cc1 (centres unmarked) [SB203580] | down-regulated ILT-3 and PD-L1 expression | markedly down-regulated IL-12 production | significantly dependent | did not changed IL-12 production; also recorded: did not affect IL-12 production | – | – | – | – | – | – |
| O=CC[C@@H](O)[C@H](O)[C@H](O)CO [2-DG, 2-deoxyglucose] | failed to up-regulate ILT-3 and PD-L1 molecules | – | markedly decreased IL-10 production | remained unaffected | remained unaffected | significantly prevented lactate generation | increased partially | – | – | – |
| O=[N+]([O-])c1ccc2c(c1)S(=O)(=O)C=C2 [Stattic] | markedly reduced expression | unaffected | reduced IL-10 production | unaffected | significantly increased CD86 expression | – | partial restoration | down-regulated IL-10 production | – | – |
| C[C@H](/C=C/[C@H](C)C(C)(C)O)[C@H]1CC[C@H]2/C(=C/C=C3C[C@@H](O)C[C@H](O)C3)CCC[C@]12C [VitD2, 19-nor-1,25-dihydroxyvitamin D2] | – | – | – | – | – | – | – | – | did not affect the viability of DCs | – |
| C[C@@H]1C[C@H]2[C@@H]3CCC4=CC(=O)C=C[C@]4(C)[C@@]3(F)[C@@H](O)C[C@]2(C)[C@@]1(O)C(=O)CO [Dex, Dexamethasone] | – | – | – | – | – | – | – | – | did not affect the viability of DCs | – |
| COc1cccc(-c2cc(=O)c3ccccc3o2)c1N [PD98059] | – | – | significantly dependent | – | significantly up-regulated CD86 expression | – | increased the ability | – | – | down-regulated PD-L1 expression |
| Cc1ccc(S(=O)(=O)/C=C/C#N)cc1 [Bay 11-7082] | – | markedly down-regulated IL-12 production | significantly dependent; also recorded: abrogated IL-10 production | did not changed IL-12 production; also recorded: did not affect IL-12 production | – | – | – | – | – | – |
